Values after ≈ are worked out from the molar mass of the structure shown. One block for each compound: values may come before it.
Columns and labels:
Assay in all cases: ≥ marks a high value that may be exact or a test limit, other limits are often not marked, values filed in µg/mL are converted to µM
[1] = test system: Acinetobacter baumannii ATCC 19606
[2] = test system: Candida parapsilosis ATCC 22019
[3] = test system: Enterococcus faecalis ATCC 29212
[4] = test system: Escherichia coli ATCC 25922
[5] = test system: Escherichia coli ML-35p
[6] = test system: Klebsiella pneumoniae ATCC 13883
[7] = test system: Pseudomonas aeruginosa ATCC 27853
[8] = test system: Saccharomyces cerevisiae
[9] = test system: Staphylococcus aureus ATCC 25923
[10] = test system: Staphylococcus aureus ATCC 43300
[11] = test system: Staphylococcus aureus ATCC BAA-44
[12] = test system: Staphylococcus aureus ST1065
[13] = test system: Streptococcus pyogenes ATCC 19615
[14] = test system: Bacillus subtilis
[15] = test system: Candida albicans
[16] = test system: Escherichia coli
[17] = test system: Micrococcus luteus
[18] = test system: Proteus mirabilis
[19] = test system: Pseudomonas aeruginosa
[20] = test system: Salmonella typhimurium
[21] = test system: Serratia marcescens
[22] = test system: Shigella dysenteriae
[23] = test system: Staphylococcus epidermidis
[24] = test system: Streptococcus mutans UA159
[25] = test system: Streptococcus sanguinis ATCC 10556
[26] = test system: Streptococcus sobrinus ATCC 6715
[27] = test system: Escherichia coli C600
[28] = test system: Pseudomonas aeruginosa PAO1
[29] = test system: Staphylococcus aureus 209P

Compound: CC(C)[C@H](NC(=O)[C@H](CCCN=C(N)N)NC(=O)[C@H](CCCCN)NC(=O)CNC(=O)[C@@H](NC(=O)[C@H](CCCN=C(N)N)NC(=O)[C@H](Cc1c[nH]c2ccccc12)NC(=O)[C@H](Cc1c[nH]c2ccccc12)NC(=O)[C@H](CCCCN)NC(=O)[C@H](CCCCN)NC(=O)[C@H](Cc1ccccc1)NC(=O)[C@H](Cc1ccccc1)NC(=O)[C@H](CCCN=C(N)N)NC(=O)CNC(=O)[C@H](Cc1c[nH]c2ccccc12)NC(=O)CN)C(C)C)C(=O)NCC(=O)N[C@@H](CCCCN)C(=O)O [GWGRFFKKWWRVGKRVGK]
MIC [24]: 7.02 µM (≈ 16 µg/mL)
MIC [25]: 7.02 µM (≈ 16 µg/mL)
MIC [26]: 7.02 µM (≈ 16 µg/mL)

Compound: CC[C@H](C)[C@@H]1NC(=O)CNC(=O)[C@H](CCCN=C(N)N)NC(=O)[C@H](Cc2ccc(O)cc2)NC(=O)[C@@H]2CSSC[C@H](NC1=O)C(=O)N[C@@H](Cc1ccc(O)cc1)C(=O)N[C@@H](CCCN=C(N)N)C(=O)N[C@@H](CCCN=C(N)N)C(=O)N[C@H](C(=O)N[C@@H](CCCN=C(N)N)C(=O)O)CSSC[C@H](NC(=O)[C@H](Cc1c[nH]c3ccccc13)NC(=O)[C@@H](N)CCCCN)C(=O)N[C@@H](Cc1ccccc1)C(=O)N[C@@H](CCCN=C(N)N)C(=O)N[C@@H](CCCN=C(N)N)C(=O)N2 [KWCFRRCYRGICYRRCR]
MIC [27]: 1.56 µM (≈ 3.62 µg/mL)
MIC [28]: > 50 µM
MIC [29]: ≥ 50 µM

The next lines start with the values.

MIC [1]: 6.25 µM (≈ 12.5 µg/mL)
MIC [2]: ≥ 50 µM
MIC [3]: 50 µM (≈ 100 µg/mL)
MIC [4]: 25 µM (≈ 50.1 µg/mL)
MIC [5]: 25 µM (≈ 50.1 µg/mL)
MIC [6]: 25 µM (≈ 50.1 µg/mL)
MIC [7]: 100 µM (≈ 200 µg/mL)
MIC [8]: 12.5 µM (≈ 25 µg/mL)
MIC [9]: 6.25 µM (≈ 12.5 µg/mL)
MIC [10]: 6.25 µM (≈ 12.5 µg/mL)
MIC [11]: 6.25 µM (≈ 12.5 µg/mL)
MIC [12]: 6.25 µM (≈ 12.5 µg/mL)
MIC [13]: 3.12 µM (≈ 6.25 µg/mL)
Compound: CC[C@H](C)[C@H](NC(=O)[C@H](Cc1cnc[nH]1)NC(=O)[C@@H]1CCCN1C(=O)[C@@H](NC(=O)[C@H](CCSC)NC(=O)[C@H](CO)NC(=O)[C@H](CC(C)C)NC(=O)[C@@H](N)Cc1ccccc1)[C@@H](C)CC)C(=O)N[C@H](C(=O)N[C@@H](CO)C(=O)NCC(=O)N[C@H](C(=O)N[C@@H](C)C(=O)N[C@@H](C)C(=O)N[C@@H](CC(C)C)C(=O)N[C@@H](C)C(=O)N[C@@H](CCCCN)C(=O)N[C@@H](Cc1cnc[nH]1)C(=O)N[C@@H](CC(C)C)C(N)=O)C(C)C)C(C)C [FLSMIPHIVSGVAALAKHL]

MIC [14]: ≥ 39.8 µM
MIC [15]: > 39.8 µM
MIC [16]: 19.9 µM (≈ 50 µg/mL)
MIC [17]: 1.99 µM (≈ 5 µg/mL)
MIC [18]: 19.9 µM (≈ 50 µg/mL)
MIC [19]: 39.8 µM (≈ 100 µg/mL)
MIC [8]: 19.9 µM (≈ 50 µg/mL)
MIC [20]: ≥ 39.8 µM
MIC [21]: ≥ 39.8 µM
MIC [22]: 19.9 µM (≈ 50 µg/mL)
MIC [23]: 29.8 µM (≈ 75 µg/mL)
Compound: CC[C@H](C)[C@H](NC(=O)CN)C(=O)N[C@@H](CC(C)C)C(=O)N[C@@H](CC(=O)O)C(=O)N[C@H](C(=O)N[C@@H](CC(C)C)C(=O)N[C@@H](CCCCN)C(=O)N[C@@H](CCC(N)=O)C(=O)N[C@@H](Cc1ccccc1)C(=O)N[C@@H](C)C(=O)N[C@@H](CCCCN)C(=O)NCC(=O)N[C@H](C(=O)NCC(=O)N[C@@H](CCCCN)C(=O)N[C@@H](CC(=O)O)C(=O)N[C@@H](CC(C)C)C(=O)N[C@H](C(=O)N[C@@H](CCCCN)C(=O)NCC(=O)N[C@@H](C)C(=O)N[C@@H](C)C(=O)N[C@@H](CCC(N)=O)C(=O)NCC(=O)N[C@H](C(=O)O)C(C)C)C(C)C)C(C)C)[C@@H](C)O [GILDTLKQFAKGVGKDLVKGAAQGV]

MIC [24]: 8.31 µM (≈ 16 µg/mL)
MIC [25]: 16.6 µM (≈ 32 µg/mL)
MIC [26]: 8.31 µM (≈ 16 µg/mL)
Compound: CC(C)[C@H](NC(=O)[C@H](CCCCN)NC(=O)[C@H](CCCCN)NC(=O)[C@H](Cc1c[nH]c2ccccc12)NC(=O)[C@H](CCCCN)NC(=O)[C@H](CCCCN)NC(=O)[C@H](Cc1ccccc1)NC(=O)[C@H](Cc1ccccc1)NC(=O)[C@H](CCCCN)NC(=O)[C@H](CCCCN)NC(=O)[C@H](Cc1c[nH]c2ccccc12)NC(=O)CN)C(=O)N[C@@H](Cc1c[nH]c2ccccc12)C(=O)N[C@@H](CCCCN)C(=O)O [GWKKFFKKWKKVWK]

Source: DBAASP
